Assay results from BindingDB's records for doi:10.1016/j.bmcl.2004.01.021 (Atherogenics, 2004).
pIC50: −log10 of the molar value.

What follows are compounds tested against T1, Tumor necrosis factor receptor superfamily member 1A (Homo sapiens, UniProt P19438) (assay: ChEBML_224214).
T1 sequence (P19438 whole entry): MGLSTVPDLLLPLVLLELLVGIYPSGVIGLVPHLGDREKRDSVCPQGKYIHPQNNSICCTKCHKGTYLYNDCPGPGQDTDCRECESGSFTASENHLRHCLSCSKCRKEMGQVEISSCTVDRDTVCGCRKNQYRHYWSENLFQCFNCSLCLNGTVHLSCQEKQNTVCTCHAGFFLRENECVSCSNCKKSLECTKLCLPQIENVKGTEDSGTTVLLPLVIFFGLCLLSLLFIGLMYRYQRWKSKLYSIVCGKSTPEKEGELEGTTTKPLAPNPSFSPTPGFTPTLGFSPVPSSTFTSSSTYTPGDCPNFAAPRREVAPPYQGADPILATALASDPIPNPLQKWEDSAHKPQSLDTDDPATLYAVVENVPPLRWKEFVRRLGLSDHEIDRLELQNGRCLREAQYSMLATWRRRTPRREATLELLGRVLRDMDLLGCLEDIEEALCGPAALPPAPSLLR
Description: Inhibition of TNF-alpha-induced VCAM-1 expression
Work on `COc1ccc(-c2ccc(C)s2)cc1/C=C/C(=O)c1ccc2c(c1)OCO2` [(E)-1-Benzo[1,3]dioxol-5-yl-3-[2-methoxy-5-(5-methyl-thiophen-2-yl)-phenyl]-propenone] yielded a pIC50 of 5.52. In the case of `COc1ccc(/C=C/C(=O)c2cc(C(C)(C)C)c(O)c(C(C)(C)C)c2)cc1` [(E)-1-(3,5-Di-tert-butyl-4-hydroxy-phenyl)-3-(4-methoxy-phenyl)-propenone], the pIC50 was < 4.30. For `COc1ccc(-c2cccs2)cc1/C=C/C(=O)c1ccc(OC)c(OC)c1` [(E)-1-(3,4-Dimethoxy-phenyl)-3-(2-methoxy-5-thiophen-2-yl-phenyl)-propenone], the pIC50 was 5.52. For `COc1ccc(C(=O)/C=C/c2ccccc2)cc1OC` [3',4'-dimethoxychalcone], the pIC50 was 5.10. For `COc1cc(/C=C/C(=O)c2cc(OC)c(OCc3ccccc3)c(OC)c2)cc(Br)c1OC` [(E)-1-(4-Benzyloxy-3,5-dimethoxy-phenyl)-3-(3-bromo-4,5-dimethoxy-phenyl)-propenone], the pIC50 was < 4.30. With `COc1cc(OC)c(/C=C/C(=O)c2cc(OC)c(OC)c(OC)c2)cc1Br` [(E)-3-(5-Bromo-2,4-dimethoxy-phenyl)-1-(3,4,5-trimethoxy-phenyl)-propenone] the pIC50 was 5.70. `COc1cc(OC)c(-c2cc3ccccc3s2)cc1/C=C/C(=O)c1cc(OC)c(O)c(OC)c1` [(E)-3-(5-Benzo[b]thiophen-2-yl-2,4-dimethoxy-phenyl)-1-(4-hydroxy-3,5-dimethoxy-phenyl)-propenone] showed a pIC50 of 6.00. In the case of `COc1ccc(Br)cc1/C=C/C(=O)c1cc(OC)c(OC)c(OC)c1` [(E)-3-(5-Bromo-2-methoxy-phenyl)-1-(3,4,5-trimethoxy-phenyl)-propenone], the pIC50 was 6.00. `COc1ccc(C(=O)/C=C/c2cc(-c3cccs3)ccc2OC)cc1` [(E)-1-(4-Methoxy-phenyl)-3-(2-methoxy-5-thiophen-2-yl-phenyl)-propenone] showed a pIC50 of 5.52. Work on `CC(C)(C)c1cc(C(=O)/C=C/c2ccccc2)cc(C(C)(C)C)c1O` [(E)-1-(3,5-Di-tert-butyl-4-hydroxy-phenyl)-3-phenyl-propenone] yielded a pIC50 of 4.33. `CCOc1ccc(/C=C/C(=O)c2cc(-c3cccs3)ccc2OC)cc1F` [(E)-3-(4-Ethoxy-3-fluoro-phenyl)-1-(2-methoxy-5-thiophen-2-yl-phenyl)-propenone] showed a pIC50 of 5.40. `COc1ccc(-c2cc(C(=O)/C=C/c3cc(OC)c(OC)c(OC)c3)c(OC)cc2OC)c(OC)c1` [(E)-1-(4,6,2',4'-Tetramethoxy-biphenyl-3-yl)-3-(3,4,5-trimethoxy-phenyl)-propenone] gave a pIC50 of 5.52. `COc1ccc(-c2cc3ccccc3s2)cc1/C=C/C(=O)c1ccc(OC)c(OC)c1` [(E)-3-(5-Benzo[b]thiophen-2-yl-2-methoxy-phenyl)-1-(3,4-dimethoxy-phenyl)-propenone] gave a pIC50 of 5.70. In the case of `COc1cc(OC(C)(C)C(=O)O)c(/C=C/C(=O)c2ccc(C(F)(F)F)cc2)cc1-c1cccs1` [2-{5-Methoxy-2-[(E)-3-oxo-3-(4-trifluoromethyl-phenyl)-propenyl]-4-thiophen-2-yl-phenoxy}-2-methyl-propionic acid], the pIC50 was 5.40. `COc1ccc(-c2ccc(C)s2)cc1/C=C/C(=O)c1ccc(OC)c(OC)c1` [(E)-1-(3,4-Dimethoxy-phenyl)-3-[2-methoxy-5-(5-methyl-thiophen-2-yl)-phenyl]-propenone] gave a pIC50 of 5.70. `COc1ccc(/C=C/C(=O)c2ccc(OC)c(OC)c2)cc1` [(E)-1-(3',4'-Dimethoxyphenyl)-3-(4''-methoxyphenyl)prop-2-en-1-one] was tested, and the pIC50 was 5.22. Compound `COc1cc(-c2cccc(C(C)=O)c2)ccc1C(=O)C=Cc1cc(OC)c(OC)c(OC)c1` [(E)-1-(3'-Acetyl-3-methoxy-biphenyl-4-yl)-3-(3,4,5-trimethoxy-phenyl)-propenone] has a pIC50 of 5.40. `COc1cc(OC)c(C(=O)/C=C/c2cc(Br)c(OC)c(OC)c2)cc1OC` [(E)-3-(3-Bromo-4,5-dimethoxy-phenyl)-1-(2,4,5-trimethoxy-phenyl)-propenone] gave a pIC50 of 5.70. `COc1cc(OC)c(-c2cc3ccccc3s2)cc1/C=C/C(=O)c1ccc(SCC(=O)O)cc1` [{4-[(E)-3-(5-Benzo[b]thiophen-2-yl-2,4-dimethoxy-phenyl)-acryloyl]-phenylsulfanyl}-acetic acid] showed a pIC50 of 6.00. For `COc1cc(OC)c(C(=O)/C=C/c2cc(-c3cccs3)ccc2OC)c(OC)c1` [(E)-3-(2-Methoxy-5-thiophen-2-yl-phenyl)-1-(2,4,6-trimethoxy-phenyl)-propenone], the pIC50 was 5.52. Compound `COc1ccc(C(=O)/C=C/c2cc(-c3cc4ccccc4s3)ccc2OC)cc1` [(E)-3-(5-Benzo[b]thiophen-2-yl-2-methoxy-phenyl)-1-(4-methoxy-phenyl)-propenone] has a pIC50 of 5.52. `COc1cc(/C=C/C(=O)c2cc(OC)c(OC)c(OC)c2)cc(Br)c1OC` [(E)-3-(3-Bromo-4,5-dimethoxy-phenyl)-1-(3,4,5-trimethoxy-phenyl)-propenone] gave a pIC50 of 5.40. Work on `COc1cc(/C=C/C(=O)c2cc(OC)c(OCc3cc(OC)c(OC)c(OC)c3)c(OC)c2)cc(OC)c1OC` [(E)-1-[3,5-Dimethoxy-4-(3,4,5-trimethoxy-benzyloxy)-phenyl]-3-(3,4,5-trimethoxy-phenyl)-propenone] yielded a pIC50 of 5.52. For `COc1ccc(-c2cccs2)cc1C=CC(=O)c1ccc(OCc2ccc(NC(=O)OC(C)(C)C)cc2)c(OC)c1` [(4-{2-Methoxy-4-[(E)-3-(2-methoxy-5-thiophen-2-yl-phenyl)-acryloyl]-phenoxymethyl}-phenyl)-carbamic acid tert-butyl ester], the pIC50 was < 4.30. Compound `O=C(/C=C/c1ccccc1)c1ccccc1` [Chalcone, 13] has a pIC50 of 4.64. Compound `COc1ccc(COc2ccc(C(=O)/C=C/c3cc(OC)c(OC)c(OC)c3)cc2OC)cc1OC` [(E)-1-[4-(3,4-Dimethoxy-benzyloxy)-3-methoxy-phenyl]-3-(3,4,5-trimethoxy-phenyl)-propenone] has a pIC50 of 5.70. Work on `COc1cc(C(=O)C=Cc2cc(OC)c(OC)c(-c3ccc(C(C)=O)s3)c2)cc(OC)c1OC` [(E)-3-[3-(5-Acetyl-thiophen-2-yl)-4,5-dimethoxy-phenyl]-1-(3,4,5-trimethoxy-phenyl)-propenone] yielded a pIC50 of 5.52. For `COc1cc(OC)c(-c2cc3ccccc3s2)cc1/C=C/C(=O)c1cc(OC)c(OC)c(OC)c1` [(E)-3-(5-Benzo[b]thiophen-2-yl-2,4-dimethoxy-phenyl)-1-(3,4,5-trimethoxy-phenyl)-propenone], the pIC50 was 5.30. Work on `COc1ccc(-c2ccc(C)s2)cc1/C=C/C(=O)c1cc(OC)c(OC)c(OC)c1` [(E)-3-[2-Methoxy-5-(5-methyl-thiophen-2-yl)-phenyl]-1-(3,4,5-trimethoxy-phenyl)-propenone] yielded a pIC50 of 5.70. Compound `COc1ccc(-c2cccs2)cc1/C=C/C(=O)c1ccc(OCc2ccc(N)cc2)c(OC)c1` [(E)-1-[4-(4-Amino-benzyloxy)-3-methoxy-phenyl]-3-(2-methoxy-5-thiophen-2-yl-phenyl)-propenone] has a pIC50 of 5.15. `COc1ccc(-c2cccs2)cc1/C=C/C(=O)c1c(OC)cccc1OC` [(E)-1-(2,6-Dimethoxy-phenyl)-3-(2-methoxy-5-thiophen-2-yl-phenyl)-propenone] showed a pIC50 of 5.52. Compound `CCOC(=O)c1ccc(COc2ccc(C(=O)/C=C/c3cc(-c4cccs4)ccc3OC)cc2OC)cc1` [4-{2-Methoxy-4-[(E)-3-(2-methoxy-5-thiophen-2-yl-phenyl)-acryloyl]-phenoxymethyl}-benzoic acid ethyl ester] has a pIC50 of 5.40. With `COc1cc(OC)cc(C(=O)/C=C/c2cc(-c3cccs3)ccc2OC)c1` [(E)-1-(3,5-Dimethoxy-phenyl)-3-(2-methoxy-5-thiophen-2-yl-phenyl)-propenone] the pIC50 was 5.70. `COc1ccc(C(=O)/C=C/c2ccc(OC)cc2OC)cc1` [3-(2,4-Dimethoxy-phenyl)-1-(4-methoxy-phenyl)-propenone] showed a pIC50 of 4.54. For `COc1c(C(C)(C)C)cc(C(=O)/C=C/c2ccccc2)cc1C(C)(C)C` [(E)-1-(3,5-Di-tert-butyl-4-methoxy-phenyl)-3-phenyl-propenone], the pIC50 was 5.05. `COc1cc(-c2cccs2)ccc1C(=O)/C=C/c1ccc(F)c(F)c1` [(E)-3-(3,4-Difluoro-phenyl)-1-(2-methoxy-4-thiophen-2-yl-phenyl)-propenone] showed a pIC50 of 5.70. `COc1cc(OCC(=O)O)c(/C=C/C(=O)c2ccccc2)cc1-c1cc2ccccc2s1` [[4-Benzo[b]thiophen-2-yl-5-methoxy-2-((E)-3-oxo-3-phenyl-propenyl)-phenoxy]-acetic acid] was tested, and the pIC50 was 6.00. `COc1cc(OC)c(-c2cc3ccccc3s2)cc1/C=C/C(=O)c1ccc(OC)c(OC)c1OC` [(E)-3-(5-Benzo[b]thiophen-2-yl-2,4-dimethoxy-phenyl)-1-(2,3,4-trimethoxy-phenyl)-propenone] showed a pIC50 of 5.10.
